One series addresses 5-HT4 receptors (Homo sapiens (Human), UniProt Q13639). Kind of series: Determination of EC50 values for 5-HT4 receptor (pCRE-Luc reporter assay). The settings on record: CHO cells expressing recombinant human 5-HT4 receptor and pCRE-Luc reporter; 4 h incubation; luciferase activity. The class given is cell-based. On the procedure:
A stable CHO cell line expressing recombinant human 5-HT4 receptor and pCRE-Luc reporter system was used for cell-based assay. The assay offers a non-radioactive based approach to determine binding of a compound to GPCRs. In this specific assay, the level of intracellular cyclic AMP, which is modulated by activation, or inhibition of the receptor is measured. The recombinant cells harbor luciferase reporter gene under the control of cAMP response element.
The above cells were grown in 96 well clear bottom white plates in Ham's F12 medium containing 10% fetal bovine serum. Prior to the addition of compounds or standard agonist, cells were serum starved overnight. Increasing concentrations of test compounds were added to the cells in OptiMEM medium. The incubation was continued in CO2 incubator at 37° C. with 5% CO2 conditions for 4 h. Medium was removed and cells were washed with phosphate buffered saline. The cells were lysed and luciferase activity was measured in a Luminometer. Concentration-response data was generated using the luciferase assay, following incubation of cells with receptor ligands, were analyzed by subtracting basal levels (i.e. with medium alone), then normalizing values as a percentage of controls (endogenous agonist serotonin (10 μM)). […] EC50 values of the compounds were defined as the concentration required in stimulating the luciferase activity by 50%.
Background: Reporter assays use an easily measured gene product as a stand-in for the process of interest.

Series [1] can be described thus: Rat brain penetration study. It counts as in vivo. To be noted: brain/plasma, oral (gavage) 3 mg/kg, male Wistar rats, brain concentrations below LLOQ taken as zero, read-out: Single dose Brain Penetration (Cb/Cp). On the procedure:
Male Wistar rats (225±25 g) were used as experimental animals. Three animals were housed in each cage. Animals were given water and food ad libitum throughout the experiment and maintained on a 12 h light/dark cycle.
Brain penetration was determined in discrete manner in rats. One day prior to dosing day, male Wistar rats were acclimatized. After acclimatization, the rats were grouped according to their weight. In each group, 3 animals were kept in individual cages and allowed free access to food and water. At each time point (0.5, 1, and 2 h) n=3 animals were used.
The compounds of formula (I) were suitably preformulated and administered orally at (free base equivalent) 3 mg/kg. Blood samples were collected via, cardiac puncture by using isoflurane anesthesia. The animals were sacrificed to collect brain tissue. Plasma was separated and brain samples were homogenized and stored frozen at −20° C. until analysis.
The concentrations of the compounds of formula (I) were quantified in plasma and brain homogenate by qualified LC-MS/MS method using a suitable extraction technique. The compounds of formula (I) were quantified in the calibration range of 1-2000 ng/mL in plasma and brain homogenate. Study samples were analyzed using calibration samples in the batch and quality control samples spread across the batch. Extent of brain-plasma ratio was calculated (Cb/Cp). Brain concentrations were found below LLOQ and a value of zero was considered for calculation purposes.

The nature of series [2]: Rat pharmacokinetic study. The settings on record: male Wistar rats, plasma. The class given is in vivo. As for the experimental part:
Male Wistar rats (250±50 g) were used as experimental animals. Animals were housed individually in polypropylene cages. Two days prior to study, rats were anesthetized with isoflurane for surgical placement of jugular vein catheter. Rats were randomly divided for oral (3 mg/kg and 10 mL/kg as dose volume) and intravenous (1 mg/kg and 2 mL/kg as dose volume) dosing (n=3/group) and fasted overnight before oral dosing (p.o.). However, rats allocated to intravenous dosing food and water was provided ad libitum.
Intravenous formulation was prepared by using water for injection as vehicle. For Oral, formulation was prepared by using reagent grade water as vehicle. The dose formulations were prepared freshly on the day of dosing.
After dosing of animal, each time point a 200 μL of blood sample was collected through jugular vein and replenished with an equivalent volume of normal saline. The collected blood sample was transferred into a labeled eppendorf tube containing 10 μL of sodium heparin (1000 IU/mL) as an anticoagulant. Typically blood samples were collected at following time points: 0.08, 0.25, 0.5, 1, 2, 4, 6, 8, and 24 h post dose. Blood was centrifuged at 4000 rpm for 10 min. Plasma was separated and stored frozen at −80° C. until analysis. The concentrations of the test compounds were quantified in plasma by qualified LC-MS/MS method using a suitable extraction technique. The test compounds were quantified in the calibration range around 1-2000 ng/mL in plasma. Study samples were analyzed using calibration samples in the batch and quality control samples spread across the batch.
Pharmacokinetic parameters Cmax, AUCt, t1/2 and bioavailability were calculated by non-compartmental model using standard non-compartmental model by using Phoenix WinNonlin 6.4 version Software.

As usually defined, the EC50 is the concentration needed to bring the measured effect to its halfway point. The term AUC(0-t) denotes the area under the concentration-time curve up to a stated or last time point. As usually defined, the half-life is how long it takes for the measured level to halve. One may read the Cmax as the peak of the concentration-time curve. The bioavailability is the share of a dose that reaches the circulation, judged against a reference dose that is usually intravenous.

Sequence of 5-HT4 receptors (Q13639 whole entry): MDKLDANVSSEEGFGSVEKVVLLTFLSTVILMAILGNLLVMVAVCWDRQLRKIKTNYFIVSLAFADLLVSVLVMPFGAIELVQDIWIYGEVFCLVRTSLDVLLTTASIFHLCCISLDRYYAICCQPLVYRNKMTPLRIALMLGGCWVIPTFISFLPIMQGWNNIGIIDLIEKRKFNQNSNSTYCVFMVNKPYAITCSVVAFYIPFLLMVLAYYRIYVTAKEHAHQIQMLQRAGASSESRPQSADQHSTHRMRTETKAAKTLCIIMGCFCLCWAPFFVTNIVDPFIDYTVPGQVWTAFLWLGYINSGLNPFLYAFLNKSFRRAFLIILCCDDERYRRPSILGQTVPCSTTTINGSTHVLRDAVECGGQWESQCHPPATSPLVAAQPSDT

With `CC(C)n1c(=O)c(C(=O)NC2CC3CCC(C2)N3CC(O)CN(C)S(C)(=O)=O)cc2cccn21` (racemic) [Example 5, Racemic-N-{8-[2-Hydroxy-3-[(N-methyl)methanesulfonamido]propyl]-8-azabicyclo[3.2.1]oct-3-yl} [1-isopropyl-2-oxo-1,2-dihydro pyrrolo[1,2-b]pyridazine]-3-carboxamide], the EC50 on 5-HT4 receptors was found to be 3.1 nM.
`CC(C)n1c(=O)c(C(=O)NC2CC3CCC(C2)N3CC(O)CN(C)S(C)(=O)=O)cc2cccn21` (racemic) [Example 6, Racemic-N-{8-[2-Hydroxy-3-[(N-methyl)methanesulfonamido]propyl]-8-azabicyclo[3.2.1]oct-3-yl} [1-isopropyl-2-oxo-1,2-dihydro pyrrolo[1,2-b]pyridazine]-3-carboxamide L(+)-tartarate]: the half-maximal effective concentration (EC50) on 5-HT4 receptors was found to be 3.3 nM.
For the compound `CC(C)n1c(=O)c(C(=O)NC2CC3CCC(C2)N3C[C@@H](O)CN(C)S(C)(=O)=O)cc2cccn21` (single isomer, unassigned) [Example 1], the EC50 at 5-HT4 receptors was determined as 2 nM.
The same measure, in the same setting: under `CC(C)n1c(=O)c(C(=O)NC2CC3CCC(C2)N3C[C@H](O)CN(C)S(C)(=O)=O)cc2cccn21` (single isomer, unassigned) [Example 3] stands 9 nM.
`CC(C)n1c(=O)c(C(=O)NC2CC3CCC(C2)N3C[C@H](O)CN(C)S(C)(=O)=O)cc2cccn21.O=C(O)C(O)C(O)C(=O)O` (single isomer, unassigned) [Example 4]: in series [1], the Kp was 0. For the same compound, at 5-HT4 receptors, the 50% effective concentration (EC50) is 10 nM. Further, in series [2] (intravenous (bolus), 1 mg/kg), the AUC(0-t) is 124 ± 7.9 ng·h/mL and the half-life is 1.7 ± 0.3 h. In series [2] (oral (gavage), 3 mg/kg), this compound displayed an AUC(0-t) of 44 ± 22 ng·h/mL and a Cmax of 11 ± 6.6 ng/mL. In series [2] (oral 3 mg/kg vs intravenous 1 mg/kg), this compound returned a bioavailability of 12 ± 5.9%.
Take `CC(C)n1c(=O)c(C(=O)NC2CC3CCC(C2)N3C[C@@H](O)CN(C)S(C)(=O)=O)c(O)c2cccn21` (stereo partly drawn) [Example 7, (R)-N-{8-[2-Hydroxy-3-[(N-methyl)methanesulfonamido]propyl]-8-azabicyclo[3.2.1]oct-3-yl} [4-hydroxy-1-isopropyl-2-oxo-1,2-dihydro pyrrolo[1,2-b]pyridazine]-3-carboxamide]: the concentration for a half-maximal effect (EC50) at 5-HT4 receptors was found to be 10.1 nM.
With `CC(C)n1c(=O)c(C(=O)NC2CC3CCC(C2)N3C[C@@H](O)CN(C)S(C)(=O)=O)c(O)c2cccn21` (stereo partly drawn) [Example 8, (R)-N-{8-[2-Hydroxy-3-[(N-methyl)methanesulfonamido]propyl]-8-azabicyclo[3.2.1]oct-3-yl} [4-hydroxy-1-isopropyl-2-oxo-1,2-dihydro pyrrolo[1,2-b]pyridazine]-3-carboxamide L-(+)-tartarate], the concentration for a half-maximal effect (EC50) at 5-HT4 receptors worked out at 6.1 nM.
Turning to `CC(C)n1c(=O)c(C(=O)NC2CC3CCC(C2)N3C[C@@H](O)CNS(C)(=O)=O)cc2cccn21` (stereo partly drawn) [Example 14, (R)-N-{8-[2-Hydroxy-3-(methanesulfonamido)propyl]-8-azabicyclo[3.2.1]oct-3-yl} [1-isopropyl-2-oxo-1,2-dihydro pyrrolo[1,2-b]pyridazine]-3-carboxamide L-(+)-tartarate], on 5-HT4 receptors, the EC50 worked out at 6.3 nM.
On the same count and under the same terms, under `CC(=O)N(C)C[C@H](O)CN1C2CCC1CC(NC(=O)c1cc3cccn3n(C(C)C)c1=O)C2` (stereo partly drawn) [Example 15, (R)-N-{8-[2-Hydroxy-3-[(N-methyl)acetamido]propyl]-8-azabicyclo[3.2.1]oct-3-yl} [1-isopropyl-2-oxo-1,2-dihydro pyrrolo[1,2-b]pyridazine]-3-carboxamide] stands 8 nM.
As for `CC(C)n1c(=O)c(C(=O)NC2CC3CCC(C2)N3C[C@@H](O)CN2CCN(S(C)(=O)=O)CC2)cc2cccn21` (stereo partly drawn) [Example 18, (R)-N-{8-[2-Hydroxy-3-[(1-methanesulfonylpiperazin)-4-yl]propyl]-8-azabicyclo[3.2.1]oct-3-yl} [1-isopropyl-2-oxo-1,2-dihydro pyrrolo[1,2-b]pyridazin]-3-carboxamide L(+)tartarate], on 5-HT4 receptors, the EC50 was determined as 2.4 nM.
Still for that read-out and setting: under `CC(C)n1c(=O)c(C(=O)NC2CC3CCC(C2)N3C[C@@H](O)CN2CCN(S(C)(=O)=O)CC2)c(O)c2cccn21` (stereo partly drawn) [Example 20, (R)-N-{8-[2-Hydroxy-3-[(1-methanesulfonylpiperazin)-4-yl]propyl]-8-azabicyclo[3.2.1]oct-3-yl} [4-hydroxy-1-isopropyl-2-oxo-1,2-dihydro pyrrolo[1,2-b]pyridazin]-3-carboxamide L-(+)-tartarate] stands 14 nM; under `CC(C)n1c(=O)c(C(=O)NC2CC3CCC(C2)N3CCCN(C)S(C)(=O)=O)cc2cccn21` (stereo not shown) [Example 22, N-{8-[3-[(N-Methyl)methanesulfonamido]propyl]-8-azabicyclo[3.2.1]oct-3-yl} [1-isopropyl-2-oxo-1,2-dihydro pyrrolo[1,2-b]pyridazine]-3-carboxamide], 58 nM.
Still for that read-out and setting: under `CC(C)n1c(=O)c(C(=O)NC2CC3CCC(C2)N3CCCNS(C)(=O)=O)cc2cccn21` [Example 24, N-{8-[3-[methanesulfonamido]propyl]-8-azabicyclo[3.2.1]oct-3-yl} [1-isopropyl-2-oxo-1,2-dihydro pyrrolo[1,2-b]pyridazine]-3-carboxamide L-(+)-tartarate] stands 11 nM; under `CC(C)n1c(=O)c(C(=O)NC2CC3CCC(C2)N3CCCNS(=O)(=O)C(C)C)cc2cccn21` (stereo not shown) [Example 25, N-{8-[3-Isopropylsulfonylaminopropyl]-8-azabicyclo[3.2.1]oct-3-yl} [1-isopropyl-2-oxo-1,2-dihydro pyrrolo[1,2-b]pyridazin]-3-carboxamide], 13 nM; under `CC(C)n1c(=O)c(C(=O)NC2CC3CCC(C2)N3CCNS(=O)(=O)C(C)C)cc2cccn21` (stereo not shown) [Example 29, N-{8-[2-Isopropylsulfonylaminoethyl]-8-azabicyclo[3.2.1]oct-3-yl} [1-isopropyl-2-oxo-1,2-dihydro pyrrolo[1,2-b]pyridazin]-3-carboxamide], 16 nM.
With `CC(=O)NCCCN1C2CCC1CC(NC(=O)c1cc3cccn3n(C(C)C)c1=O)C2` (stereo not shown) [Example 31, N-{8-[3-Acetamidopropyl]-8-azabicyclo[3.2.1]oct-3-yl} [1-isopropyl-2-oxo-1,2-dihydro pyrrolo[1,2-b]pyridazin]-3-carboxamide], the concentration giving a half-maximal response (EC50) on 5-HT4 receptors came out at 35.1 nM.
Consider `COC(=O)NCCCN1C2CCC1CC(NC(=O)c1cc3cccn3n(C(C)C)c1=O)C2` (stereo not shown) [Example 33, N-{8-[3-Carbomethoxyaminopropyl]-8-azabicyclo[3.2.1]oct-3-yl} [1-isopropyl-2-oxo-1,2-dihydro pyrrolo[1,2-b]pyridazin]-3-carboxamide], for which the EC50 at 5-HT4 receptors amounted to 12 nM.
As to `COC(=O)NCCN1C2CCC1CC(NC(=O)c1cc3cccn3n(C(C)C)c1=O)C2` (stereo not shown) [Example 35, N-{8-[2-Carbomethoxyaminomethyl]-8-azabicyclo[3.2.1]oct-3-yl} [1-isopropyl-2-oxo-1,2-dihydro pyrrolo[1,2-b]pyridazin]-3-carboxamide], on 5-HT4 receptors, the EC50 is 12 nM.
The same measure, in the same setting: under `CC(=O)N1CCN(CCN2C3CCC2CC(NC(=O)c2cc4cccn4n(C(C)C)c2=O)C3)CC1` [Example 38, N-{8-[2-(4-Acetylpiperazin-1-yl)ethyl]-8-azabicyclo[3.2.1]oct-3-yl} [1-isopropyl-2-oxo-1,2-dihydro pyrrolo[1,2-b]pyridazine]-3-carboxamide L-(+)-tartrate] stands 15.4 nM.

(Values after patent US20250019386A1, “PYRROLO[1,2-b]-2-PYRIDAZINONE COMPOUNDS AS 5-HT4 RECEPTOR AGONISTS” (SUVEN LIFE SCIENCES LIMITED, priority 2022, published 2025).)
